{
  "source": "ChEMBL document CHEMBL4610071",
  "about": "“Ancistrosecolines A-F, Unprecedented seco-Naphthylisoquinoline Alkaloids from the Roots of Ancistrocladus abbreviatus, with Apoptosis-Inducing Potential against HeLa Cancer Cells” (J Nat Prod, 2020)",
  "assay_type_in_all_cases": "functional, cell-based",
  "key": {"HeLa [1]": {"tested_on": "HeLa", "test": "Cytotoxicity against human HeLa cells incubated for 72 hrs by WST-8 assay"}, "HeLa [2]": {"tested_on": "HeLa", "test": "Induction of morphological alteration in human HeLa cells at 50 uM measured within 3 hrs by real-time digital microscopy"}, "HeLa [3]": {"tested_on": "HeLa", "test": "Inhibition of cell division in human HeLa cells at 50 uM measured within 3 hrs by real-time digital microscopy"}, "HeLa [4]": {"tested_on": "HeLa", "test": "Induction of apoptosis in human HeLa cells at 50 uM measured within 24 hrs by real-time digital microscopy"}, "HeLa [5]": {"tested_on": "HeLa", "test": "Induction of apoptosis in human HeLa cells at 50 uM assessed as appearance of elongated cellular morphology incubated for 72 hrs by Hoechst 33342 staining based microscopic method"}, "HeLa [6]": {"tested_on": "HeLa", "test": "Induction of apoptosis in human HeLa cells at 50 uM assessed as nuclear fragmentation incubated for 72 hrs by Hoechst 33342 staining based microscopic method"}},
  "note": "The source made the active and inactive calls. No cut-off for these calls is given here.",
  "data": [
    {"smiles": "CN[C@@H](C)Cc1cc(O)c(-c2c(C)cc(OC)c3c(OC)cccc23)c(OC)c1", "note": "(atropisomer P)", "values": [
      {"measurement": "IC50", "setting": "HeLa [1]", "value": 52.6, "unit": "µM"}
    ]},
    {"smiles": "COc1cc(C[C@H](C)N)cc(O)c1-c1ccc(OC)c2c(OC)cc(C)cc12", "note": "(atropisomer P)", "values": [
      {"measurement": "Activity", "setting": "HeLa [1]", "value": "Dose-dependent effect"},
      {"measurement": "IC50", "setting": "HeLa [1]", "value": 11.2, "unit": "µM"},
      {"measurement": "Activity", "setting": "HeLa [2]", "value": "Active"},
      {"measurement": "inhibition", "setting": "HeLa [3]", "value": "Active"},
      {"measurement": "Activity", "setting": "HeLa [4]", "value": "Active"},
      {"measurement": "Activity", "setting": "HeLa [5]", "value": "Active"},
      {"measurement": "Activity", "setting": "HeLa [6]", "value": "Active"}
    ]},
    {"smiles": "COc1cc(C[C@H](C)N)cc(O)c1-c1c(C)cc(OC)c2c(OC)cccc12", "note": "(atropisomer P)", "values": [
      {"measurement": "IC50", "setting": "HeLa [1]", "value": 72.4, "unit": "µM"}
    ]}
  ]
}
